According to PubChem BioAssay AID1354 (Sanford-Burnham Center for Chemical Genomics, 2008):
Calls of active or inactive are those of the source.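 The calls were made as follows: active = survival over 30 points above compound-free thapsigargin wells at any thapsigargin dose; inactive = the rest.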

Test system: Jurkat, thapsigargin-induced death, ATPlite luminescence, 24 h
Experiment: protection from thapsigargin-induced Jurkat death, Jurkat T-cell leukemia, ATP content luminescence (AID 1354)
Conditions: at 25 µM, stronger effect = higher value
[1] = measured here: survival at thapsigargin 10 uM
[2] = measured here: survival at thapsigargin 15 uM

SMILES: CCOc1cccc(C2Nc3ccccc3NC3=C2C(=O)CC(c2ccc(OC)cc2)C3)c1 (stereo not drawn)
- survival (thapsigargin 7.5 uM): 46% (inactive)
- survival [1]: 32%
- survival [2]: 1%

SMILES: COc1ccc(C2CC(=O)C3=C(C2)Nc2ccccc2NC3c2cccc(C(F)(F)F)c2)cc1OC (stereo not drawn)
- survival (thapsigargin 7.5 uM): 42% (inactive)
- survival [1]: 19%
- survival [2]: 1%

SMILES: CSc1ccc(C2Nc3ccccc3NC3=C2C(=O)CC(c2ccccc2)C3)cc1 (stereo not drawn)
- survival (thapsigargin 7.5 uM): 44% (inactive)
- survival [1]: 23%
- survival [2]: 4%

SMILES: CCOc1cc(C2Nc3ccccc3NC3=C2C(=O)CC(c2ccc(OC)cc2)C3)cc(Cl)c1O (stereo not drawn)
- survival (thapsigargin 7.5 uM): 55% (inactive)
- survival [1]: 35%
- survival [2]: 2%

SMILES: COc1ccc(C2CC(=O)C3=C(C2)Nc2ccccc2NC3c2ccccc2C(F)(F)F)cc1OC (stereo not drawn)
- survival (thapsigargin 7.5 uM): 44% (inactive)
- survival [1]: 32%
- survival [2]: 2%

SMILES: O=C1CC(c2ccccc2)CC2=C1C(c1c(F)cccc1Cl)Nc1ccccc1N2 (stereo not drawn)
- survival (thapsigargin 7.5 uM): 39% (inactive)
- survival [1]: 23%
- survival [2]: 1%

SMILES: CC1(C)CC(=O)C2=C(C1)Nc1ccccc1NC2c1ccc(-c2ccccc2)cc1 (stereo not drawn)
- survival (thapsigargin 7.5 uM): 14% (inactive)
- survival [1]: 3%
- survival [2]: 0%

SMILES: COc1ccc(C2CC(=O)C3=C(C2)Nc2ccccc2NC3c2cc(C)ccc2C)cc1 (stereo not drawn)
- survival (thapsigargin 7.5 uM): 54% (inactive)
- survival [1]: 37%
- survival [2]: 2%

SMILES: COc1ccc(C2CC(=O)C3=C(C2)Nc2ccccc2NC3c2cccc(Br)c2)cc1OC (stereo not drawn)
- survival (thapsigargin 7.5 uM): 34% (inactive)
- survival [1]: 18%
- survival [2]: 1%

SMILES: COc1ccc(C2CC(=O)C3=C(C2)Nc2ccccc2NC3c2cccc(Oc3ccccc3)c2)cc1OC (stereo not drawn)
- survival (thapsigargin 7.5 uM): 51% (inactive)
- survival [1]: 37%
- survival [2]: 7%

SMILES: CCCOc1ccc(C2Nc3ccccc3NC3=C2C(=O)CC(c2ccc(OC)c(OC)c2)C3)cc1 (stereo not drawn)
- survival (thapsigargin 7.5 uM): 44% (inactive)
- survival [1]: 17%
- survival [2]: 1%
